Data on 13 compounds can be found in patent US10752624B2, “Kinase inhibitors” (Origenis GmbH, priority 2012, dated 2020).

One experiment concerns the target LRRK2 (Homo sapiens, UniProt Q5S007). Kind of experiment: LRRK2-LRRK2 G2019S-Assay (LanthaScreen Eu Kinase Binding Assay). As to conditions: 5 nM LRRK2, 10 nM tracer 236, 2 nM EU-Anti-GST antibody, 1 h at RT; read-out: LRRK2 Activities: IC50. An outline of the steps:
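Compound competition with Alexa Fluor 647 tracer 236 (10 nM) was measured after 1 h at room temperature, using 5 nM LRRK2 (wild type or mutant) bound to 2 nM Eu-anti-GST antibody. IC50 was derived from the acceptor/donor (665/615 nm) ratio using a variable-slope dose-response fit.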
On the technique in general: In TR-FRET formats the signal depends on donor and acceptor labels being close together.

The next experiment has as its target T1, SYK kinase (Homo sapiens, UniProt P43405).
T1 construct: purchased Invitrogen, Carlsbad
Kind of experiment: SYK Assay (OMNIA Kinase Assay, SOX peptide fluorescence). It is filed as biochemical. To be noted: 1 mM ATP, 10 μM Omnia Peptide Substrate Tyr 7, 30° C., readings for 30 minutes; read-out: SYK Activities: IC50. In outline: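 The reaction was run at 30 °C with 1 mM ATP, 0.2 mM DTT and 10 μM Omnia Tyr 7 peptide (final) and started by adding SYK. Chelation-enhanced SOX fluorescence (ex 360/em 485 nm) was read every 30 s for 30 min. Reaction velocity versus inhibitor concentration was fitted sigmoidally for IC50.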

Chain of LRRK2 (Q5S007 970-2527 limits assumed): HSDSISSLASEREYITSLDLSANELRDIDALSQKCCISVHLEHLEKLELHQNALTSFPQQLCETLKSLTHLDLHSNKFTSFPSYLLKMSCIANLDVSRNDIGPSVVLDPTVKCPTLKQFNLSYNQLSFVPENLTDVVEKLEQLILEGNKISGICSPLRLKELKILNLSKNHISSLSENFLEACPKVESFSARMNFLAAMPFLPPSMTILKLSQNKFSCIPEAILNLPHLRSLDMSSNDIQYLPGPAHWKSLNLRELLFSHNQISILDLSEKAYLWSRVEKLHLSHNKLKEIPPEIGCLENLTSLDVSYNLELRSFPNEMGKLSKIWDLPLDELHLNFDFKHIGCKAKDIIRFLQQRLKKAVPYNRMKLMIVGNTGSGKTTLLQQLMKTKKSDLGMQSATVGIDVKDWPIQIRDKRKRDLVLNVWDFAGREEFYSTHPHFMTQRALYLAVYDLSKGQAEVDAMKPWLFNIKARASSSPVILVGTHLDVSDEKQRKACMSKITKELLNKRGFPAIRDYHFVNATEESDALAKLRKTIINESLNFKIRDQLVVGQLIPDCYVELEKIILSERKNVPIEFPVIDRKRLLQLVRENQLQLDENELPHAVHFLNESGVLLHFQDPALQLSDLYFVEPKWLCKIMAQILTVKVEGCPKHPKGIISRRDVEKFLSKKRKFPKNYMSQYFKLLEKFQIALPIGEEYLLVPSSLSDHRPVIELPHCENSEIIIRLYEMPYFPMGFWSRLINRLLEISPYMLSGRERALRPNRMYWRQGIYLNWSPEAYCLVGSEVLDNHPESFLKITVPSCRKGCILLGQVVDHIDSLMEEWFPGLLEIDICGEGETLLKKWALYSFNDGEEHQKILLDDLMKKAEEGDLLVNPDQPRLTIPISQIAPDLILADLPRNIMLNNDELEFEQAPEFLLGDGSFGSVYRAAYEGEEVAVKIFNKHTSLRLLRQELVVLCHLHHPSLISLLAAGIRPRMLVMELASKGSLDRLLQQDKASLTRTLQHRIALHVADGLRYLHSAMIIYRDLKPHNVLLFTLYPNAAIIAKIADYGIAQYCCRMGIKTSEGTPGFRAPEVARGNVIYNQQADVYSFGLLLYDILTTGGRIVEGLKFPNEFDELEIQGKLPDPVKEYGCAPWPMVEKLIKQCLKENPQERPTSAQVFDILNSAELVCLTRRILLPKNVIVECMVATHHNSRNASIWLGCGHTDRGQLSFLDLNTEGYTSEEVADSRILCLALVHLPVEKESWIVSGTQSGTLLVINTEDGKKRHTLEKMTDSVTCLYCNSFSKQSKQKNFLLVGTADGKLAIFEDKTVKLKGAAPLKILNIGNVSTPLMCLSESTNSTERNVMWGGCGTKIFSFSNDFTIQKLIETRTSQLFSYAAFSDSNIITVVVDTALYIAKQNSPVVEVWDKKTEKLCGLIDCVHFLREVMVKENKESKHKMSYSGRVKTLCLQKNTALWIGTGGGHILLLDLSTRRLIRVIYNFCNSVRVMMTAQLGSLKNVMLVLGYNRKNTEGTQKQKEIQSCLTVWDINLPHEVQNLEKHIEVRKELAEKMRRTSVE

In general, IC50 refers to the concentration that gives 50% inhibition. Take `COc1ccc2nc(Nc3cnn(CC(C)C)c3)c3[nH]ncc3c2c1` [Example 285, N-(1-isobutyl-1H-pyrazol-4-yl)-8-methoxy-3H-pyrazolo[3,4-c]quinolin-4-amine]: the results for the half-inhibitory concentration (IC50) at LRRK2 and on SYK kinase were 10 to 100 nM and 100 to 1000 nM, respectively.
In the same order, the values of `COc1ccc2nc(Nc3cnn(C(C)(C)C)c3)c3[nH]ncc3c2c1` [Example 286, N-(1-(tert-butyl)-1H-pyrazol-4-yl)-8-methoxy-3H-pyrazolo[3,4-c]quinolin-4-amine] are less than 10 nM and 100 to 1000 nM.
In the same order, the values of `COCCCn1cc(Nc2nc3ccc(OC)cc3c3cn[nH]c23)cn1` [Example 287, 8-methoxy-N-(1-(3-methoxypropyl)-1H-pyrazol-4-yl)-3H-pyrazolo[3,4-c]quinolin-4-amine] are less than 10 nM and 10 to 100 nM.
Regarding `COc1cc(OC)c2nc(Nc3ccc(N4CCOCC4)cc3)c3[nH]ncc3c2c1` [Example 288, 6,8-dimethoxy-N-(4-morpholinophenyl)-3H-pyrazolo[3,4-c]quinolin-4-amine], the half-inhibitory concentration (IC50) is 10 to 100 nM on LRRK2 and 100 to 1000 nM on SYK kinase.
For the compound `COc1cc(OC)c2nc(Nc3cnn(C4CCOCC4)c3)c3[nH]ncc3c2c1` [Example 289, 6,8-dimethoxy-N-(1-(tetrahydro-2H-pyran-4-yl)-1H-pyrazol-4-yl)-3H-pyrazolo[3,4-c]quinolin-4-amine], the half-inhibitory concentration (IC50) on LRRK2 is 10 to 100 nM; on SYK kinase it was 100 to 1000 nM.
On the same counts, the results for `COCCCn1cc(Nc2nc3c(OC)cc(OC)cc3c3cn[nH]c23)cn1` [Example 290, 6,8-dimethoxy-N-(1-(3-methoxypropyl)-1H-pyrazol-4-yl)-3H-pyrazolo[3,4-c]quinolin-4-amine] are 10 to 100 nM and 100 to 1000 nM.
On the same counts, the results for `COc1ccc2nc(Nc3cnn(C(C)C)c3)c3[nH]ncc3c2c1` [Example 292, N-(1-isopropyl-1H-pyrazol-4-yl)-8-methoxy-3H-pyrazolo[3,4-c]quinolin-4-amine] are 10 to 100 nM and 10 to 100 nM.
With `COc1ccc2nc(Nc3cnn(C4CC4)c3)c3[nH]ncc3c2c1` [Example 293, N-(1-cyclopropyl-1H-pyrazol-4-yl)-8-methoxy-3H-pyrazolo[3,4-c]quinolin-4-amine], the IC50 at LRRK2 and at SYK kinase was 10 to 100 nM in each case.
On to `COc1ccc2nc(Nc3ccc(N4CCN(CCO)CC4)cc3)c3[nH]ncc3c2c1` [Example 297, 2-(4-(4-((8-methoxy-3H-pyrazolo[3,4-c]quinolin-4-yl)amino)phenyl)piperazin-1-yl)ethan-1-ol], for which the IC50 on LRRK2 and at SYK kinase was 10 to 100 nM in each case.
On to `COc1ccc2nc(Nc3cnn(CC(C)(C)O)c3)c3[nH]ncc3c2c1` [Example 298, 1-(4-((8-methoxy-3H-pyrazolo[3,4-c]quinolin-4-yl)amino)-1H-pyrazol-1-yl)-2-methylpropan-2-ol], for which the concentration for half-maximal inhibition (IC50) on LRRK2 lay within 10 to 100 nM; on SYK kinase, 100 to 1000 nM.
In the same order, the values of `COc1ccc2nc(Nc3cnn(C4CCN(C(C)(C)C)CC4)c3)c3[nH]ncc3c2c1` [Example 300, N-(1-(1-(tert-butyl)piperidin-4-yl)-1H-pyrazol-4-yl)-8-methoxy-3H-pyrazolo[3,4-c]quinolin-4-amine] are 10 to 100 nM and 100 to 1000 nM.
In the same order, the values of `COc1ccc2nc(Nc3cnn(C(C)(C)C#N)c3)c3[nH]ncc3c2c1` [Example 301, 2-(4-((8-methoxy-3H-pyrazolo[3,4-c]quinolin-4-yl)amino)-1H-pyrazol-1-yl)-2-methylpropanenitrile] are less than 10 nM and 10 to 100 nM.
In the same order, the values of `COc1ccc(Nc2nc3cc(S(C)(=O)=O)ccc3c3cn[nH]c23)cc1OC` [Example 302, N-(3,4-dimethoxyphenyl)-7-(methylsulfonyl)-3H-pyrazolo[3,4-c]quinolin-4-amine] are 100 to 1000 nM and 100 to 1000 nM.
